Tests used:
[1] = system: DSS-induced colitis mice; assay: DSS-induced colitis in mice (DAI score, colon length); type: in vivo, ICR mice; settings: B4 group (100 mg/kg by gavage), 5% DSS mice
Method: ICR mice were fed normally for 3 days, with free access to water and food during the feeding period. After weighing, the mice were randomly divided into groups, including normal group, model group (DSS group), A3-6 (15, 30, 60 mg/kg) group, A3-6 (60 mg/kg)+DADA (50 mg/kg) group, and positive drug B4 (100 mg/kg) group. A3-6 was administered by gavage with hydroxypropyl β-cyclodextrin (1:3), B4 was dissolved in water and administered by gavage, and DADA (50 mg/kg) was injected intraperitoneally, once a day. The day before modeling, the weight was weighed and A3-6, DADA and B4 were pre-administered according to body weight. After 24 hours of administration, DSS was dissolved in the drinking water for mice. The mice in the model group and the administration group were continuously given 5% DSS for 8 days and weighed every day. […] After the 9th day of administration, the mice were sacrificed, blood and colon were collected, and the length of the colon was measured.
A3-6 (15 mg/kg, 30 mg/kg and 60 mg/kg) or B4 (100 mg/kg) were administered by gavage once daily for 9 days. […] The DAI scores of each group of mice were calculated daily according to the scoring requirements.
The mice colitis model was constructed using 5% DSS to evaluate the therapeutic effect of A3-6 on inflammatory bowel disease (IBD)-. […] The DAI score of the mice was comprehensively evaluated.

[2] = system: TNF-α; assay: TNF-α release from LPS-stimulated THP-1 cells, ELISA; type: cell-based; settings: pretreatment 1 h, LPS 1 μg/mL 24 h, P<0.05
Method: (§1) THP-1 cells were seeded in a 6-well plate at 2×10^5 cells/well and cultured conventionally. After the cells reached 80%, they were induced with 100 ng/ml of PMA for 12 h, and then the original medium was discarded, and new complete medium was added. The control group was pretreated with B4 (0.1, 1, 10 μM) for 1 h, and the experimental group was pretreated with A3-6 (0.1, 1, 10 μM) for 1 h. After 1 h, the other groups were removed from the blank group and incubated with 1 μg/mL LPS for 24 h. The culture supernatant was collected, and the IL-6 and TNF-α contents were finally determined and calculated using ELISA kits step by step according to their instructions. The effect of A3-6 on the release of inflammatory factors was tested by ELISA kits.

[3] = system: IL-6; assay: IL-6 release from LPS-stimulated THP-1 cells, ELISA; type: cell-based; settings: pretreatment 1 h, LPS 1 μg/mL 24 h, P<0.05
Method: as §1

C=C(C)[C@@H]1CC[C@]2(C(=O)O[C@@H]3O[C@H](CO[C@@H]4O[C@H](CO)[C@@H](O[C@@H]5O[C@@H](C)[C@H](O)[C@@H](O)[C@H]5O)[C@H](O)[C@H]4O)[C@@H](O)[C@H](O)[C@H]3O)CC[C@]3(C)[C@H](CC[C@@H]4[C@@]5(C)CC[C@H](O[C@@H]6OC[C@H](O)[C@H](O)[C@H]6O[C@@H]6O[C@@H](C)[C@H](O)[C@@H](O)[C@H]6O)[C@@](C)(CO)[C@@H]5CC[C@]43C)[C@@H]12 [B4, anemoside B4]
colon length [1]: could restore the colon length | release of TNF-α compared with the model group ([2]; 1 μM): significantly reduced | release of TNF-α compared with the model group ([2]; 10 μM): significantly reduced | release of IL-6 compared with the model group ([3]; 1 μM): significantly reduced | release of IL-6 compared with the model group ([3]; 10 μM): significantly reduced

From patent US20250066409A1, “DERIVATIVE OF PENTACYCLIC TRITERPENOIDAL SAPONIN AND ITS PREPARATION METHOD AND APPLICATION” (SOOCHOW UNIVERSITY, priority 2022, published 2025)
